The values below come from patent US10172957B2, “Acid-labile lipophilic prodrugs of cancer chemotherapeutic agents” (priority 2011, dated 2019).

Series [1] concerns MES-SA uterine sarcoma line. Kind of series: MTT-based cytotoxicity assay, MES-SA. The class given is cell-based, human. To be noted: Homo sapiens, MES-SA, read-out: IC50 MESSA (Hs). From the text:
(§1) A second evaluation of the cytotoxicity of the acid labile, lipophilic molecular conjugates was undertaken.
(§2) These lines included a uterine sarcoma line, MES-SA, and its doxorubicin-resistant subline, MES-SA/Dx5. See W. G. Harker, F. R MacKintosh, and B. I. Sikic. Development and characterization of a human sarcoma cell line, MES-SA, sensitive to multiple drugs. Cancer Research 43: 4943-4950 (1983); W. G. Harker and B. I. Sikic. Multidrug (pleiotropic) resistance in doxorubicin-selected variants of the human sarcoma cell line MES-SA. Cancer Research 45: 4091 4096 (1985).
(§3) MES-SA/Dx5 cells express high levels of ABCB1 (MDR1) mRNA and its gene product, the P-glycoprotein. MES-SA and MES-SA/Dx5 were purchased from the American Type Culture Collection (ATCC, Manassas, Va.).
In general terms: Tetrazolium assays rely on reduction of a dye to a coloured formazan, in cell work by metabolically active cells.

For series [2], the system named is MES-SA/Dx5 doxorubicin-resistant subline (MDR+). The experiment in a line: cells. To be noted: for IC50: Homo sapiens, MES-SA/Dx5, read-out: IC50 MESSA/Dx5 (MDR + Hs); for Degree of resistance (MESSA/Dx5): IC50 of the resistant line divided by IC50 of sensitive MES-SA cells. The format is cell-based, human.
Text: as §1, §2, §3

The next series relates to CEM/VM-1-5 cells (MDR+). Kind of series: cells. To be noted: for IC50: Homo sapiens, read-out: IC50 CEM/VM-1-5 (MDR + HTL), CEM/VM-1-5, MTT; for Degree of resistance (CEM/VM-1-5): IC50 of the resistant line divided by IC50 of sensitive CEM cells. The format is cell-based, human. The source says: A second evaluation of the cytotoxicity of the acid labile, lipophilic molecular conjugates was undertaken. […]
The second set of cells tested, CCRF-CEM or simply CEM, were derived from the blood of a patient with acute lymphoblastic leukemia. G. E. Foley, H. Lazarus, S. Farber, B. G. Uzman, B. A. Boone, and R E. McCarthy. Continuous culture of human lymphoblasts from peripheral blood of a child with acute leukemia. Cancer 18: 522-529 (1965). The subline CEM/VLB100 was developed to be resistant to up to vinblastine at 100 ng/ml. W. T. Beck, T. J. Mueller, and L. R. Tanzer. Altered surface membrane glycoproteins in Vinca alkaloid-resistant human leukemic lymphoblasts. Cancer Research 39: 2070-2076 (1979). Drug resistance is achieved by overexpression of the MDR1 gene. Resistance in the CEM subline designated CEM/VM-1-5, however, is “atypical.” M. K. Danks, J. C. Yalowich, and W. T. Beck. Atypical multiple drug resistance in a human leukemic cell line selected for resistance to teniposide (VM-26). Cancer Research 47: 1297-1301 (1987). The classes of drugs included in the “classic” multiple drug resistance phenotype are Vinca alkaloids, anthracyclines, epipodophyllotoxins and antibiotics. However, CEM/VM-1-5 cells retain sensitivity to the Vinca alkaloids despite resistance and cross-resistance to etoposide, anthracyclines and mitoxantrone. Danks, M. K.; Schmidt, C. A.; Cirtain, M. C.; Suttle, D. P.; Beck, W. T., Altered catalytic activity of and DNA cleavage by DNA topoisomerase II from human leukemic cells selected for resistance to VM-26. Biochemistry 1988, 27, 8861-8869. Resistance in CEM/VM-1-5 cells is effected by over expression of the […]. CEM, CEM/VLB100 and CEM/VM-1-5 cells were obtained from Dr. WT Beck, University of Illinois at Chicago.

Series [3] in a line: Estimation of maximum tolerated dose (MTD) in the mouse. To be noted: in vivo, iv, mice, in lipid emulsion (INTRALIPID), survival for 30 day observation period. As to the method: Stock solutions of ART 198 and 273 and their respective acid labile, lipophilic molecular conjugates (ART 489 and ART 488, respectively) were prepared in ethanol and then diluted into a lipid emulsion (INTRALIPID®, 20% Soybean Oil, 1.2% egg yolk phospholipids, 2.25% glycerin and water) and injected intravenously into mice at various doses in milligrams per kilogram. The animals were observed daily for signs of toxicity and/or death for a period of 30 days. The MTD was defined as survival of the dosed mice for the full 30 day observation period.

For orientation: MTD means the largest dose that counted as tolerated.

For `COC(=O)[C@@]12OC[C@]34[C@H]([C@@H](O)[C@@H]1O)[C@@]1(C)CC(=O)C(O)=C(C)[C@@H]1C[C@H]3OC(=O)C(OC(=O)CC1(O)CCCCC1)[C@@H]24` (stereo partly drawn) [ART 198], in series [1], the IC50 worked out at 47.5 ± 11 nM. Also, in series [2], the IC50 came to 376 ± 110 nM and the “Degree of resistance (MESSA/Dx5)” value is 7.9 ± 0.6. Also, in the series with CEM/VM-1-5 cells (MDR+), the IC50 is 308 ± 10 nM and the “Degree of resistance (CEM/VM-1-5)” value was determined as 3 ± 1. In series [3], the MTD at 30 days was 4 mg/kg.

For the molecule `CCCCCCCCCCCCCCCC1OCC(COC(=O)OC2=C(C)[C@@H]3C[C@H]4OC(=O)C(OC(=O)CC5(O)CCCCC5)[C@H]5[C@]6(C(=O)OC)OC[C@]45[C@H]([C@@H](O)[C@@H]6O)[C@@]3(C)CC2=O)O1` (stereo partly drawn) [ART 489], the IC50 in series [1] was 5.5 ± 3.5 nM. Also, in series [2], the IC50 amounted to 17 ± 5.7 nM and the “Degree of resistance (MESSA/Dx5)” value was determined as 4.3 ± 3.8. Moreover, in the series on CEM/VM-1-5 cells (MDR+), the IC50 amounted to 24 ± 4 nM and the “Degree of resistance (CEM/VM-1-5)” value came to 1.2 ± 0.07. The MTD at 30 days in series [3] is 3.1 mg/kg.

Turning to `CCCCCCCCCCCCCCCC1OCC(COC(=O)O[C@@H]2C(=O)C=C(C)[C@@H]3C[C@H]4OC(=O)C(OC(=O)CC(O)(C(C)C)C(C)C)C5[C@@H](C)[C@@H](O)[C@@]6(O)OC[C@@]54C6[C@@]23C)O1` (stereo partly drawn) [ART 488], the IC50 in series [1] worked out at 1.5 ± 0.7 nM; in series [2] it was 7 ± 5.7 nM; in the series with CEM/VM-1-5 cells (MDR+), 8 ± 4 nM. For the same molecule, the “Degree of resistance (MESSA/Dx5)” value in series [2] was 4.3 ± 1.8. Also, in the series on CEM/VM-1-5 cells (MDR+), the “Degree of resistance (CEM/VM-1-5)” value is 2 ± 1. Moreover, the MTD at 30 days in series [3] is 4 mg/kg.
